The source of these data is US9950993B2 (Rutgers, The State University of New Jersey, priority 2015, dated 2018).

Each structure is given as a SMILES string.

This assay has as its system Escherichia coli W4573. Briefly: Test A: MIC-based assay for efflux pump inhibition (enhancement of minocycline MIC). Type of assay: cell-based. As to conditions: ratio of minocycline MIC in absence to MIC in presence of test compound, test compound at 12.5 ug/ml (27-48 μM). Here is the method: Test A. Minimum Inhibitory Concentration (MIC)-Based Assay for Efflux Pump Inhibition:
MIC-based assays were used to evaluate the impact of potential efflux pump inhibiting (EPI) compounds on the MIC of minocycline, an antibiotic known to be a substrate for Gram-negative bacterial efflux pumps. The assays were conducted in accordance with Clinical and Laboratory Standards Institute (CLSI) guidelines for broth microdilution, with the modification that assays were conducted in the presence and absence of the test EPI compounds. When present, the EPI compounds were added to cation-adjusted Mueller-Hinton (CAMH) broth (Becton, Dickinson and Co., Franklin Lakes, N.J.) at a final concentration of 12.5 µg/mL.
Log-phase Gram-negative bacteria were added to 96-well microtiter plates (at 5×10^5 colony forming units (CFU) per mL) containing two-fold serial dilutions of minocycline in CAMH broth either in the absence or presence of the test EPI compounds. In all assays, each serial dilution of minocycline was present in duplicate. The final volume in each well was 0.1 mL, and the microtiter plates were incubated aerobically for 24 hours at 37° C. Bacterial growth was then monitored by measuring the optical density (OD) at 600 nm using a VersaMax® plate reader (Molecular Devices, Inc., Sunnyvale, Calif.), with the MIC being defined as the lowest compound concentration at which growth was ≥90% inhibited compared to antibiotic-free control. The following Gram-negative bacterial strains were included in these assays:
Escherichia coli W4573, ATCC 25922, and ATCC BAA-201 (an extended spectrum […] (ESBL)-producing strain that expresses the TEM-3 β-lactamase).
The efflux pump mutant E. coli strain N43 (acrA1) was used as a positive control.
The enhancement is the ratio of the minocycline MIC in the absence of test compound to the minocycline MIC in the presence of test compound.
On to `NCC[C@H](N)CNC(=O)C(CCc1ccccc1)CCc1ccccc1` [Example 3, (S)—N-(2,4-diaminobutyl)-2-phenethyl-4-phenylbutanamide], for which the Enhancement turned out to be 8. Next, `NCCC[C@H](N)CNC(=O)CCCc1ccccc1` [Example 10, (S)—N-(2,5-diaminopentyl)-4-phenylbutanamide]: 4; `NCCC[C@@H](N)CNC(=O)C(CCc1ccccc1)CCc1ccccc1` [Example 2, (R)—N-(2,5-diaminopentyl)-2-phenethyl-4-phenylbutanamide]: 64.

With `NCCC[C@H](N)CNC(=O)C(CCc1ccccc1)Cc1ccccc1` (stereo partly drawn) [Example 6, 2-benzyl-N—((S)-2,5-diaminopentyl)-4-phenylbutanamide], the Enhancement is on record as 4. Turning to `NCCC[C@H](N)CNC(=O)CC(Cc1ccccc1)Cc1ccccc1` [Example 12, (S)-3-Benzyl-N-(2,5-diaminopentyl)-4-phenylbutanamide], the Enhancement is 16.

For the compound `NCCC[C@H](N)CNC(=O)CC(c1ccccc1)c1ccccc1` [Example 9, (S)—N-(2,5-diaminopentyl)-3,3-diphenylpropanamide], the Enhancement is 8. Next, `NC[C@H](N)CNC(=O)C(CCc1ccccc1)CCc1ccccc1` [Example 4, (S)—N-(2,3-diaminopropyl)-2-phenethyl-4-phenylbutanamide]: 1; `NCCC[C@H](N)CNC(=O)C(CCc1ccccc1)CCc1ccccc1` [Example 1, (S)—N-(2,5-diaminopentyl)-2-phenethyl-4-phenylbutanamide]: 8. On to `NCCC[C@H](N)CNC(=O)C(c1ccccc1)c1ccccc1` [Example 8, (S)—N-(2,5-diaminopentyl)-2,2-diphenylacetamide], for which the Enhancement was 4. The same measure for `NCCC[C@H](N)CNC(=O)CC(CCc1ccccc1)CCc1ccccc1` [Example 13, (S)—N-(2,5-diaminopentyl)-3-phenethyl-5-phenylpentanamide]: 512; for `COc1ccc(CCC(CCc2ccccc2)C(=O)NC[C@@H](N)CCCN)cc1` (stereo partly shown) [Example 11]: 4. For `NCCC[C@H](N)CNC(=O)C(Cc1ccccc1)Cc1ccccc1` [Example 7, (S)-2-benzyl-N-(2,5-diaminopentyl)-3-phenylpropanamide], the Enhancement was 8. With `NC[C@@H](N)CCCNC(=O)C(CCc1ccccc1)CCc1ccccc1` [Example 5, (S)—N-(4,5-diaminopentyl)-2-phenethyl-4-phenylbutanamide], the Enhancement came to 2.
